Measurements: patent publication US20140120232A1, “ACID TASTE/ACID SMELL-REDUCING AGENT” (T. HASEGAWA CO., LTD., priority 2011, published 2014)

Assay: Sensory evaluation of Vermont drink containing the agent
Conditions: ten panels
Description: Water was added to a mixture of 10 g of apple-cider vinegar (acetic acid: 4.8%), 3 g of honey, 7 g of fructose-glucose liquid sugar mixed with sugar, 0.02 g of citric acid, 0.002 g of trisodium citrate, and 0.1 g of a Vermont flavor (manufactured by T. Hasegawa Co., Ltd.) to give a total amount of 100 mL. To the resulting mixture was added (Z,Z)-4,7-tridecadienal as the acid taste and/or acid smell-reducing agent of the present invention in concentrations shown in the following Table 1 to give Vermont drinks containing the agent.
Sensory evaluation of each drink was carried out by ten panels. […] The piercing aroma characteristic to aldehydes is a characteristic aroma common to every aldehyde and refers to an irritant off-smell giving an image of deteriorated oils and fats, soap, metals, Houttuynia cordata, etc. The judgment of smell was performed by comparing the effects at different concentrations of the acid taste and/or acid smell-reducing agent, and a concentration giving the highest acid taste/acid smell quality was selected. […]

Question: Which results are given for `CCCCC/C=C\C/C=C\C=C\C=O` [(E,Z,Z)-2,4,7-tridecatrienal]?
Answer: A: number of panels, acid taste/acid smell extreme and cause irritation (0.005 ppt): 10; B: number of panels, acid taste/acid smell slightly strong and slightly cause irritation (0.005 ppt): 0; C: number of panels, acid taste/acid smell slightly unpleasant (0.005 ppt): 0; Flavor judgment: number of panels who judged acid taste/acid smell quality the highest (0.005 ppt): 0; N: number of panels, irritation of acid reduced to give a mild acid taste (0.005 ppt): 0; X: number of panels, acid taste reduced but piercing odor characteristic to aldehydes unpleasant (0.005 ppt): 0; A: number of panels, acid taste/acid smell extreme and cause irritation (0.02 ppt): 8; B: number of panels, acid taste/acid smell slightly strong and slightly cause irritation (0.02 ppt): 1; C: number of panels, acid taste/acid smell slightly unpleasant (0.02 ppt): 1; Flavor judgment: number of panels who judged acid taste/acid smell quality the highest (0.02 ppt): 0; N: number of panels, irritation of acid reduced to give a mild acid taste (0.02 ppt): 0; X: number of panels, acid taste reduced but piercing odor characteristic to aldehydes unpleasant (0.02 ppt): 0; A: number of panels, acid taste/acid smell extreme and cause irritation (0.1 ppt): 7; B: number of panels, acid taste/acid smell slightly strong and slightly cause irritation (0.1 ppt): 2; C: number of panels, acid taste/acid smell slightly unpleasant (0.1 ppt): 1; Flavor judgment: number of panels who judged acid taste/acid smell quality the highest (0.1 ppt): 0; N: number of panels, irritation of acid reduced to give a mild acid taste (0.1 ppt): 0; X: number of panels, acid taste reduced but piercing odor characteristic to aldehydes unpleasant (0.1 ppt): 0; A: number of panels, acid taste/acid smell extreme and cause irritation (0.2 ppt): 4; B: number of panels, acid taste/acid smell slightly strong and slightly cause irritation (0.2 ppt): 3; C: number of panels, acid taste/acid smell slightly unpleasant (0.2 ppt): 3; Flavor judgment: number of panels who judged acid taste/acid smell quality the highest (0.2 ppt): 0; N: number of panels, irritation of acid reduced to give a mild acid taste (0.2 ppt): 0; X: number of panels, acid taste reduced but piercing odor characteristic to aldehydes unpleasant (0.2 ppt): 0; A: number of panels, acid taste/acid smell extreme and cause irritation (0.5 ppt): 0; B: number of panels, acid taste/acid smell slightly strong and slightly cause irritation (0.5 ppt): 1; C: number of panels, acid taste/acid smell slightly unpleasant (0.5 ppt): 3; Flavor judgment: number of panels who judged acid taste/acid smell quality the highest (0.5 ppt): 1; N: number of panels, irritation of acid reduced to give a mild acid taste (0.5 ppt): 6; X: number of panels, acid taste reduced but piercing odor characteristic to aldehydes unpleasant (0.5 ppt): 0; A: number of panels, acid taste/acid smell extreme and cause irritation (1 ppb): 0; B: number of panels, acid taste/acid smell slightly strong and slightly cause irritation (1 ppb): 0; C: number of panels, acid taste/acid smell slightly unpleasant (1 ppb): 3; Flavor judgment: number of panels who judged acid taste/acid smell quality the highest (1 ppb): 0; N: number of panels, irritation of acid reduced to give a mild acid taste (1 ppb): 3; X: number of panels, acid taste reduced but piercing odor characteristic to aldehydes unpleasant (1 ppb): 4; A: number of panels, acid taste/acid smell extreme and cause irritation (1 ppt): 0; B: number of panels, acid taste/acid smell slightly strong and slightly cause irritation (1 ppt): 1; C: number of panels, acid taste/acid smell slightly unpleasant (1 ppt): 2; Flavor judgment: number of panels who judged acid taste/acid smell quality the highest (1 ppt): 3; N: number of panels, irritation of acid reduced to give a mild acid taste (1 ppt): 7; X: number of panels, acid taste reduced but piercing odor characteristic to aldehydes unpleasant (1 ppt): 0; A: number of panels, acid taste/acid smell extreme and cause irritation (5 ppt): 0; B: number of panels, acid taste/acid smell slightly strong and slightly cause irritation (5 ppt): 0; C: number of panels, acid taste/acid smell slightly unpleasant (5 ppt): 3; Flavor judgment: number of panels who judged acid taste/acid smell quality the highest (5 ppt): 3; N: number of panels, irritation of acid reduced to give a mild acid taste (5 ppt): 7; X: number of panels, acid taste reduced but piercing odor characteristic to aldehydes unpleasant (5 ppt): 0; A: number of panels, acid taste/acid smell extreme and cause irritation (10 ppb): 0; B: number of panels, acid taste/acid smell slightly strong and slightly cause irritation (10 ppb): 0; C: number of panels, acid taste/acid smell slightly unpleasant (10 ppb): 2; Flavor judgment: number of panels who judged acid taste/acid smell quality the highest (10 ppb): 0; N: number of panels, irritation of acid reduced to give a mild acid taste (10 ppb): 3; X: number of panels, acid taste reduced but piercing odor characteristic to aldehydes unpleasant (10 ppb): 5; A: number of panels, acid taste/acid smell extreme and cause irritation (20 ppt): 0; B: number of panels, acid taste/acid smell slightly strong and slightly cause irritation (20 ppt): 0; C: number of panels, acid taste/acid smell slightly unpleasant (20 ppt): 4; Flavor judgment: number of panels who judged acid taste/acid smell quality the highest (20 ppt): 3; N: number of panels, irritation of acid reduced to give a mild acid taste (20 ppt): 6; X: number of panels, acid taste reduced but piercing odor characteristic to aldehydes unpleasant (20 ppt): 0; A: number of panels, acid taste/acid smell extreme and cause irritation (50 ppb): 0; B: number of panels, acid taste/acid smell slightly strong and slightly cause irritation (50 ppb): 0; C: number of panels, acid taste/acid smell slightly unpleasant (50 ppb): 1; Flavor judgment: number of panels who judged acid taste/acid smell quality the highest (50 ppb): 0; N: number of panels, irritation of acid reduced to give a mild acid taste (50 ppb): 2; X: number of panels, acid taste reduced but piercing odor characteristic to aldehydes unpleasant (50 ppb): 7; A: number of panels, acid taste/acid smell extreme and cause irritation (100 ppt): 0; B: number of panels, acid taste/acid smell slightly strong and slightly cause irritation (100 ppt): 2; C: number of panels, acid taste/acid smell slightly unpleasant (100 ppt): 3; Flavor judgment: number of panels who judged acid taste/acid smell quality the highest (100 ppt): 0; N: number of panels, irritation of acid reduced to give a mild acid taste (100 ppt): 4; X: number of panels, acid taste reduced but piercing odor characteristic to aldehydes unpleasant (100 ppt): 1; A: number of panels, acid taste/acid smell extreme and cause irritation (500 ppt): 0; B: number of panels, acid taste/acid smell slightly strong and slightly cause irritation (500 ppt): 0; C: number of panels, acid taste/acid smell slightly unpleasant (500 ppt): 3; Flavor judgment: number of panels who judged acid taste/acid smell quality the highest (500 ppt): 0; N: number of panels, irritation of acid reduced to give a mild acid taste (500 ppt): 4; X: number of panels, acid taste reduced but piercing odor characteristic to aldehydes unpleasant (500 ppt): 3

Question: What does the source list for `CCCCC/C=C/C/C=C\C=C\C=O` [(E,Z,E)-2,4,7-tridecatrienal]?
Answer: A: number of panels, acid taste/acid smell extreme and cause irritation (0.005 ppt): 10; B: number of panels, acid taste/acid smell slightly strong and slightly cause irritation (0.005 ppt): 0; C: number of panels, acid taste/acid smell slightly unpleasant (0.005 ppt): 0; Flavor judgment: number of panels who judged acid taste/acid smell quality the highest (0.005 ppt): 0; N: number of panels, irritation of acid reduced to give a mild acid taste (0.005 ppt): 0; X: number of panels, acid taste reduced but piercing odor characteristic to aldehydes unpleasant (0.005 ppt): 0; A: number of panels, acid taste/acid smell extreme and cause irritation (0.02 ppt): 10; B: number of panels, acid taste/acid smell slightly strong and slightly cause irritation (0.02 ppt): 0; C: number of panels, acid taste/acid smell slightly unpleasant (0.02 ppt): 0; Flavor judgment: number of panels who judged acid taste/acid smell quality the highest (0.02 ppt): 0; N: number of panels, irritation of acid reduced to give a mild acid taste (0.02 ppt): 0; X: number of panels, acid taste reduced but piercing odor characteristic to aldehydes unpleasant (0.02 ppt): 0; A: number of panels, acid taste/acid smell extreme and cause irritation (0.1 ppt): 10; B: number of panels, acid taste/acid smell slightly strong and slightly cause irritation (0.1 ppt): 0; C: number of panels, acid taste/acid smell slightly unpleasant (0.1 ppt): 0; Flavor judgment: number of panels who judged acid taste/acid smell quality the highest (0.1 ppt): 0; N: number of panels, irritation of acid reduced to give a mild acid taste (0.1 ppt): 0; X: number of panels, acid taste reduced but piercing odor characteristic to aldehydes unpleasant (0.1 ppt): 0; A: number of panels, acid taste/acid smell extreme and cause irritation (0.2 ppt): 8; B: number of panels, acid taste/acid smell slightly strong and slightly cause irritation (0.2 ppt): 2; C: number of panels, acid taste/acid smell slightly unpleasant (0.2 ppt): 0; Flavor judgment: number of panels who judged acid taste/acid smell quality the highest (0.2 ppt): 0; N: number of panels, irritation of acid reduced to give a mild acid taste (0.2 ppt): 0; X: number of panels, acid taste reduced but piercing odor characteristic to aldehydes unpleasant (0.2 ppt): 0; A: number of panels, acid taste/acid smell extreme and cause irritation (0.5 ppt): 6; B: number of panels, acid taste/acid smell slightly strong and slightly cause irritation (0.5 ppt): 2; C: number of panels, acid taste/acid smell slightly unpleasant (0.5 ppt): 2; Flavor judgment: number of panels who judged acid taste/acid smell quality the highest (0.5 ppt): 0; N: number of panels, irritation of acid reduced to give a mild acid taste (0.5 ppt): 0; X: number of panels, acid taste reduced but piercing odor characteristic to aldehydes unpleasant (0.5 ppt): 0; A: number of panels, acid taste/acid smell extreme and cause irritation (1 ppb): 0; B: number of panels, acid taste/acid smell slightly strong and slightly cause irritation (1 ppb): 0; C: number of panels, acid taste/acid smell slightly unpleasant (1 ppb): 2; Flavor judgment: number of panels who judged acid taste/acid smell quality the highest (1 ppb): 0; N: number of panels, irritation of acid reduced to give a mild acid taste (1 ppb): 4; X: number of panels, acid taste reduced but piercing odor characteristic to aldehydes unpleasant (1 ppb): 4; A: number of panels, acid taste/acid smell extreme and cause irritation (1 ppt): 0; B: number of panels, acid taste/acid smell slightly strong and slightly cause irritation (1 ppt): 6; C: number of panels, acid taste/acid smell slightly unpleasant (1 ppt): 3; Flavor judgment: number of panels who judged acid taste/acid smell quality the highest (1 ppt): 0; N: number of panels, irritation of acid reduced to give a mild acid taste (1 ppt): 1; X: number of panels, acid taste reduced but piercing odor characteristic to aldehydes unpleasant (1 ppt): 0; A: number of panels, acid taste/acid smell extreme and cause irritation (5 ppt): 0; B: number of panels, acid taste/acid smell slightly strong and slightly cause irritation (5 ppt): 1; C: number of panels, acid taste/acid smell slightly unpleasant (5 ppt): 3; Flavor judgment: number of panels who judged acid taste/acid smell quality the highest (5 ppt): 4; N: number of panels, irritation of acid reduced to give a mild acid taste (5 ppt): 6; X: number of panels, acid taste reduced but piercing odor characteristic to aldehydes unpleasant (5 ppt): 0; A: number of panels, acid taste/acid smell extreme and cause irritation (10 ppb): 0; B: number of panels, acid taste/acid smell slightly strong and slightly cause irritation (10 ppb): 0; C: number of panels, acid taste/acid smell slightly unpleasant (10 ppb): 1; Flavor judgment: number of panels who judged acid taste/acid smell quality the highest (10 ppb): 0; N: number of panels, irritation of acid reduced to give a mild acid taste (10 ppb): 2; X: number of panels, acid taste reduced but piercing odor characteristic to aldehydes unpleasant (10 ppb): 7; A: number of panels, acid taste/acid smell extreme and cause irritation (20 ppt): 0; B: number of panels, acid taste/acid smell slightly strong and slightly cause irritation (20 ppt): 0; C: number of panels, acid taste/acid smell slightly unpleasant (20 ppt): 3; Flavor judgment: number of panels who judged acid taste/acid smell quality the highest (20 ppt): 4; N: number of panels, irritation of acid reduced to give a mild acid taste (20 ppt): 7; X: number of panels, acid taste reduced but piercing odor characteristic to aldehydes unpleasant (20 ppt): 0; A: number of panels, acid taste/acid smell extreme and cause irritation (50 ppb): 0; B: number of panels, acid taste/acid smell slightly strong and slightly cause irritation (50 ppb): 0; C: number of panels, acid taste/acid smell slightly unpleasant (50 ppb): 0; Flavor judgment: number of panels who judged acid taste/acid smell quality the highest (50 ppb): 0; N: number of panels, irritation of acid reduced to give a mild acid taste (50 ppb): 2; X: number of panels, acid taste reduced but piercing odor characteristic to aldehydes unpleasant (50 ppb): 8; A: number of panels, acid taste/acid smell extreme and cause irritation (100 ppt): 0; B: number of panels, acid taste/acid smell slightly strong and slightly cause irritation (100 ppt): 0; C: number of panels, acid taste/acid smell slightly unpleasant (100 ppt): 2; Flavor judgment: number of panels who judged acid taste/acid smell quality the highest (100 ppt): 2; N: number of panels, irritation of acid reduced to give a mild acid taste (100 ppt): 8; X: number of panels, acid taste reduced but piercing odor characteristic to aldehydes unpleasant (100 ppt): 0; A: number of panels, acid taste/acid smell extreme and cause irritation (500 ppt): 0; B: number of panels, acid taste/acid smell slightly strong and slightly cause irritation (500 ppt): 0; C: number of panels, acid taste/acid smell slightly unpleasant (500 ppt): 3; Flavor judgment: number of panels who judged acid taste/acid smell quality the highest (500 ppt): 0; N: number of panels, irritation of acid reduced to give a mild acid taste (500 ppt): 4; X: number of panels, acid taste reduced but piercing odor characteristic to aldehydes unpleasant (500 ppt): 3
